Source: US11331271B2, “Buccal, sublingual and intranasal delivery of fospropofol” (The Johns Hopkins University, priority 2016, dated 2022)

Tested on: healthy male volunteers
Assay: Human Study 1: treatment-emergent adverse events (TEAE), safety, Modified OAA/S
Type: in vivo
Experimental: In human study 1, fospropofol disodium was formulated as a sterile aqueous solution at a concentration of 20 mg/mL. Each vial provided contained 20 mL of solution, suitable for intravenous injection. Fospropofol was administered as a single dose of 400 mg orally, directly into the duodenum by gastroscopy or intravenously over 10 min. In human study 2, fospropofol disodium in capsules (200 mg) or matching placebo was administered orally.
The first study was an absolute bioavailability study of fospropofol conducted at a single center (PRA Health Sciences) in Groningen, Netherlands, as a three-way crossover study. The study enrolled 7 healthy male volunteers between 18 and 45 years of age inclusive, with a body mass index between 18 and 28 kg/m^2. Subjects stayed in the clinical unit for three consecutive periods of 3 days each, with a 3-day washout, between periods. For six subjects, the order of the administration routes was as follows—period 1: PO, period 2: ID, and period 3: IV. For one subject the order of the administration routes was the following—period 1: ID, period 2: IV and period 3: PO. In this study a single dose of 400 mg was administered by each route. Blinding and placebo control was impractical due to the requirement of unsedated endoscopic administration of fospropofol into the duodenum. Safety and overall pharmacodynamic effect was evaluated based on adverse events, vital signs, electrocardiogram (ECG), Modified Observer's Assessment of Alertness/Sedation (OAA/S) score, clinical laboratory tests, and physical examination.

SMILES: CC(C)c1cccc(C(C)C)c1OCOP(=O)(O)O [fospropofol]
- TEAE GASTROINTESTINAL DISORDERS, events (E) (400 mg ID): 1
- TEAE GASTROINTESTINAL DISORDERS, subjects (%) (400 mg ID): 14%
- TEAE GENERAL DISORDERS AND ADMINISTRATION SITE CONDITIONS, events (E) (400 mg ID): 3
- TEAE GENERAL DISORDERS AND ADMINISTRATION SITE CONDITIONS, subjects (%) (400 mg ID): 43%
- TEAE INFECTIONS AND INFESTATIONS, events (E) (400 mg ID): 1
- TEAE INFECTIONS AND INFESTATIONS, subjects (%) (400 mg ID): 14%
- TEAE NERVOUS SYSTEM DISORDERS, events (E) (400 mg ID): 3
- TEAE NERVOUS SYSTEM DISORDERS, subjects (%) (400 mg ID): 43%
- TEAE SKIN AND SUBCUTANEOUS TISSUE DISORDERS, events (E) (400 mg ID): 1
- TEAE SKIN AND SUBCUTANEOUS TISSUE DISORDERS, subjects (%) (400 mg ID): 14%
- TEAE TOTAL, events (E) (400 mg ID): 9
- TEAE TOTAL, subjects (%) (400 mg ID): 86%
- TEAE dizziness, events (E) (400 mg ID): 1
- TEAE dizziness, subjects (%) (400 mg ID): 14%
- TEAE fatigue, events (E) (400 mg ID): 2
- TEAE fatigue, subjects (%) (400 mg ID): 29%
- TEAE flatulence, events (E) (400 mg ID): 1
- TEAE flatulence, subjects (%) (400 mg ID): 14%
- TEAE herpes simplex, events (E) (400 mg ID): 1
- TEAE herpes simplex, subjects (%) (400 mg ID): 14%
- TEAE rash, events (E) (400 mg ID): 1
- TEAE rash, subjects (%) (400 mg ID): 14%
- TEAE somnolence, events (E) (400 mg ID): 2
- TEAE somnolence, subjects (%) (400 mg ID): 29%
- TEAE subrapubic pain, events (E) (400 mg ID): 1
- TEAE subrapubic pain, subjects (%) (400 mg ID): 14%
- subjects with Modified OAA/S score of 4 (400 mg ID): 43%
- subjects with Modified OAA/S score of 4 (n of 7) (400 mg ID): Three
- TEAE BLOOD AND LYMPHATIC SYSTEM DISORDERS, events (E) (400 mg IV): 1
- TEAE BLOOD AND LYMPHATIC SYSTEM DISORDERS, subjects (%) (400 mg IV): 14%
- TEAE EYE DISORDERS, events (E) (400 mg IV): 5
- TEAE EYE DISORDERS, subjects (%) (400 mg IV): 71%
- TEAE GASTROINTESTINAL DISORDERS, events (E) (400 mg IV): 4
- TEAE GASTROINTESTINAL DISORDERS, subjects (%) (400 mg IV): 43%
- TEAE GENERAL DISORDERS AND ADMINISTRATION SITE CONDITIONS, events (E) (400 mg IV): 9
- TEAE GENERAL DISORDERS AND ADMINISTRATION SITE CONDITIONS, subjects (%) (400 mg IV): 57%
- TEAE MUSCULOSKELETAL AND CONNECTIVE TISSUE DISORDERS, events (E) (400 mg IV): 2
- TEAE MUSCULOSKELETAL AND CONNECTIVE TISSUE DISORDERS, subjects (%) (400 mg IV): 29%
- TEAE NERVOUS SYSTEM DISORDERS, events (E) (400 mg IV): 31
- TEAE NERVOUS SYSTEM DISORDERS, subjects (%) (400 mg IV): 100%
- TEAE PSYCHIATRIC DISORDERS, events (E) (400 mg IV): 2
- TEAE PSYCHIATRIC DISORDERS, subjects (%) (400 mg IV): 29%
- TEAE REPRODUCTVE SYSTEM AND BREAST DISORDERS, events (E) (400 mg IV): 1
- TEAE REPRODUCTVE SYSTEM AND BREAST DISORDERS, subjects (%) (400 mg IV): 14%
- TEAE SKIN AND SUBCUTANEOUS TISSUE DISORDERS, events (E) (400 mg IV): 1
- TEAE SKIN AND SUBCUTANEOUS TISSUE DISORDERS, subjects (%) (400 mg IV): 14%
- TEAE TOTAL, events (E) (400 mg IV): 56
- TEAE TOTAL, subjects (%) (400 mg IV): 100%
- TEAE burning sensation, events (E) (400 mg IV): 6
- TEAE burning sensation, subjects (%) (400 mg IV): 43%
- TEAE catheter site pain, events (E) (400 mg IV): 1
- TEAE catheter site pain, subjects (%) (400 mg IV): 14%
- TEAE diplopia, events (E) (400 mg IV): 1
- TEAE diplopia, subjects (%) (400 mg IV): 14%
- TEAE disorientation, events (E) (400 mg IV): 1
- TEAE disorientation, subjects (%) (400 mg IV): 14%
- TEAE dizziness postural, events (E) (400 mg IV): 1
- TEAE dizziness postural, subjects (%) (400 mg IV): 14%
- TEAE dizziness, events (E) (400 mg IV): 3
- TEAE dizziness, subjects (%) (400 mg IV): 43%
- TEAE dry mouth, events (E) (400 mg IV): 1
- TEAE dry mouth, subjects (%) (400 mg IV): 14%
- TEAE dyspepsia, events (E) (400 mg IV): 1
- TEAE dyspepsia, subjects (%) (400 mg IV): 14%
- TEAE ecchymosis, events (E) (400 mg IV): 1
- TEAE ecchymosis, subjects (%) (400 mg IV): 14%
- TEAE euphoric mood, events (E) (400 mg IV): 1
- TEAE euphoric mood, subjects (%) (400 mg IV): 14%
- TEAE fatigue, events (E) (400 mg IV): 2
- TEAE fatigue, subjects (%) (400 mg IV): 29%
- TEAE feeling abnormal, events (E) (400 mg IV): 1
- TEAE feeling abnormal, subjects (%) (400 mg IV): 14%
- TEAE feeling cold, events (E) (400 mg IV): 1
- TEAE feeling cold, subjects (%) (400 mg IV): 14%
- TEAE feeling drunk, events (E) (400 mg IV): 1
- TEAE feeling drunk, subjects (%) (400 mg IV): 14%
- TEAE genital pruritis male, events (E) (400 mg IV): 1
- TEAE genital pruritis male, subjects (%) (400 mg IV): 14%
- TEAE lymph node pain, events (E) (400 mg IV): 1
- TEAE lymph node pain, subjects (%) (400 mg IV): 14%
- TEAE muscle fatigue, events (E) (400 mg IV): 2
- TEAE muscle fatigue, subjects (%) (400 mg IV): 29%
- TEAE nausea, events (E) (400 mg IV): 1
- TEAE nausea, subjects (%) (400 mg IV): 14%
- TEAE paresthesia, events (E) (400 mg IV): 9
- TEAE paresthesia, subjects (%) (400 mg IV): 86%
- TEAE proctalgia, events (E) (400 mg IV): 1
- TEAE proctalgia, subjects (%) (400 mg IV): 14%
- TEAE sluggishness, events (E) (400 mg IV): 3
- TEAE sluggishness, subjects (%) (400 mg IV): 43%
- TEAE somnolence, events (E) (400 mg IV): 5
- TEAE somnolence, subjects (%) (400 mg IV): 71%
- TEAE speech disorder, events (E) (400 mg IV): 6
- TEAE speech disorder, subjects (%) (400 mg IV): 86%
- TEAE tremor, events (E) (400 mg IV): 1
- TEAE tremor, subjects (%) (400 mg IV): 14%
- TEAE visual disturbance, events (E) (400 mg IV): 4
- TEAE visual disturbance, subjects (%) (400 mg IV): 54%
- subjects with Modified OAA/S score of 4 (400 mg IV): 57%
- subjects with Modified OAA/S score of 4 (n of 7) (400 mg IV): 4
- time to resolution of euphoria (400 mg IV, one subject): 34 min
- TEAE GASTROINTESTINAL DISORDERS, events (E) (400 mg PO): 1
- TEAE GASTROINTESTINAL DISORDERS, subjects (%) (400 mg PO): 14%
